Data from PubChem BioAssay AID652249 (Broad Institute, 2013).
Records with an inconclusive call do not appear. Activity calls are given as the source filed them.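 The calls were made as follows: active = platelet aggregation inhibition above 50% relative to unstimulated and buffer-only controls; inactive = the rest, inconclusive results apart.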

Test system: human washed platelets, SFLLRN-induced aggregation, aggregometer
Assay: inhibition of SFLLRN-induced platelet aggregation, late-stage follow-up, mechanism study for PDI inhibitor project, cell-based, aggregometer, single point, dry powder samples (AID 652249)
Details: at 30 µM; hits give high values

Row | Structure (SMILES) | aggregation inhibition (transmittance)
1 | C/C1=C\C[C@H](OC(=O)c2ccc(O)cc2)/C(C)=C/[C@@H](O)C(C)(C)CCC1 | 100%
2 | CCN(C)C(=O)C1(CCOc2ccccc2)CCN(Cc2ccc(O)c(Cl)c2)CC1 | 2% (inactive)
3 | CCOC(=O)C1(CCOc2ccccc2)CCN(C(=O)c2ccc(O)c(Cl)c2)CC1 | 100%
4 | CC(C)OC(=O)C1(CCOc2ccccc2)CCN(Cc2ccc(O)c(Cl)c2)CC1 | 97%
5 | C/C1=C\[C@@H](O)C(C)(C)CCCC2(C)OC2C[C@@H]1OC(=O)c1ccc(O)cc1 (stereo not given in full) | 17% (inactive)
6 | O=C(Nc1ccccc1)C1(CCOc2ccccc2)CCN(Cc2ccc(O)c(Cl)c2)CC1 | 23% (inactive)
7 | CC(C)(C)OC(=O)C1(CCOc2ccccc2)CCN(Cc2ccc(O)c(Cl)c2)CC1 | 100%
8 | CCOC(=O)C1(CCOc2ccccc2)CCN(Cc2ccc(O)cc2)CC1 | 0% (inactive)
9 | CCOC(=O)C1(CCOc2ccccc2)CCN(Cc2ccc(OC)c(Cl)c2)CC1 | 4% (inactive)
10 | O=C(NC1CCCC1)C1(CCOc2ccccc2)CCN(Cc2ccc(O)c(Cl)c2)CC1 | 1% (inactive)
